Data taken from the NIST ThermoML archive (doi:10.1016/j.jct.2008.10.010).
Numbers after ± are expanded uncertainties.

Legend:
[1] = refractive index (Na D-line) (dimensionless); details: 298.15 K; 101.33 kPa; Liquid; Standard Abbe refractometry
[2] = molar heat capacity at constant pressure; details: 101.33 kPa, Liquid, Small sample (50 mg) DSC
[3] = 298.15 K; 101.33 kPa; Liquid; Pycnometric method

CCC(C)(C)O [2-methylbutan-2-ol]
Details	mass density [kg/m3]	refractive index
[1]	–	1.4025 ± 0.0008
[3]	804.32 ± 0.79	–

[2]
Details	molar heat capacity at constant pressure [J/K/mol]
284.14 K	233.4 ± 3.6
285.15 K	234.44 ± 3.6
286.16 K	235.36 ± 3.6
287.14 K	236.15 ± 3.7
288.15 K	237.23 ± 3.7
289.14 K	238.19 ± 3.7
290.14 K	239.11 ± 3.7
291.15 K	240.18 ± 3.7
292.14 K	241.19 ± 3.7
293.14 K	242.22 ± 3.8
294.15 K	243.25 ± 3.8
295.14 K	244.25 ± 3.8
296.14 K	245.3 ± 3.8
297.15 K	246.36 ± 3.8
298.14 K	247.43 ± 3.8
298.15 K	247.44 ± 3.8
298.16 K	247.45 ± 3.8
299.14 K	248.43 ± 3.9
300.15 K	249.45 ± 3.9
301.14 K	250.56 ± 3.9
302.14 K	251.71 ± 3.9
303.15 K	252.8 ± 3.9
304.14 K	253.86 ± 3.9
305.14 K	255.01 ± 4
306.15 K	256.09 ± 4
307.16 K	257.16 ± 4
308.14 K	258.22 ± 4
309.15 K	259.29 ± 4
310.16 K	260.36 ± 4
311.14 K	261.32 ± 4
312.15 K	262.41 ± 4.1
313.16 K	263.51 ± 4.1
314.14 K	264.5 ± 4.1
315.15 K	265.53 ± 4.1
316.16 K	266.49 ± 4.1
317.14 K	267.5 ± 4.1
318.15 K	268.57 ± 4.2
319.15 K	269.56 ± 4.2
320.14 K	270.43 ± 4.2
321.15 K	271.49 ± 4.2
322.15 K	272.37 ± 4.2
323.14 K	273.32 ± 4.2
324.15 K	274.25 ± 4.2
325.15 K	275.15 ± 4.3
326.14 K	276.09 ± 4.3
327.15 K	276.89 ± 4.3
328.15 K	277.86 ± 4.3
329.14 K	278.7 ± 4.3
330.14 K	279.59 ± 4.3
331.15 K	280.35 ± 4.3
332.14 K	281.18 ± 4.4
333.14 K	282.05 ± 4.4
334.15 K	283 ± 4.4
335.14 K	283.68 ± 4.4
336.14 K	284.35 ± 4.4
337.15 K	285.19 ± 4.4
338.14 K	285.94 ± 4.4
339.14 K	286.59 ± 4.4
340.15 K	287.37 ± 4.5
341.13 K	287.88 ± 4.5
342.14 K	288.59 ± 4.5
343.15 K	289.15 ± 4.5
344.16 K	289.83 ± 4.5
345.14 K	290.42 ± 4.5
346.15 K	290.94 ± 4.5
347.16 K	291.42 ± 4.5
348.14 K	292.03 ± 4.5
349.15 K	292.61 ± 4.5
350.16 K	293.03 ± 4.5
351.14 K	293.51 ± 4.5
352.15 K	293.87 ± 4.5
353.15 K	294.39 ± 4.6
354.15 K	294.87 ± 4.6
355.13 K	295.24 ± 4.6
356.14 K	295.66 ± 4.6
357.15 K	296.1 ± 4.6
358.15 K	296.36 ± 4.6
359.14 K	296.72 ± 4.6
360.15 K	296.98 ± 4.6
361.15 K	297.18 ± 4.6
362.15 K	297.48 ± 4.6
363.14 K	297.69 ± 4.6
364.15 K	297.95 ± 4.6
365.15 K	298.16 ± 4.6
366.14 K	298.39 ± 4.6
367.15 K	298.46 ± 4.6
368.15 K	298.75 ± 4.6
368.76 K	298.79 ± 4.6
